Data from ChEMBL document CHEMBL5550184, “Structure-activity relationships of middle-size cyclic peptides, KRAS inhibitors derived from an mRNA display” (Bioorg Med Chem, 2024).
Starred links: 1 amine or outer side, 2 acyl side, 3 side chain; linkers in the order of their positions; H or OH if unused. Positions of bridges follow the written chain, without caps; N, C: chain ends. Non-standard residues stand in square brackets, D forms with d. Residues, ends and D or L forms follow the SMILES beside them. *: point of attachment. hPhe(3-Cl-4-CF3) = N[C@@H](CCc1ccc(C(F)(F)F)c(Cl)c1)C(=O)O; X2 = CN([C@@H](CC(=O)[*:2])C(=O)n1cccc1)[*:1]; NMePhe(4-Cl) = CN[C@@H](Cc1ccc(Cl)cc1)C(=O)O; Phe(3-Cl) = N[C@@H](Cc1cccc(Cl)c1)C(=O)O; NMeGly(cPent) = CN[C@H](C(=O)O)C1CCCC1; NMeGly(cBu) = CN[C@H](C(=O)O)C1CCC1; NMeCha = CN[C@@H](CC1CCCCC1)C(=O)O; NMeGly(cPr) = CN[C@H](C(=O)O)C1CC1; NMeF = CN[C@@H](Cc1ccccc1)C(=O)O; NMeI = CC[C@H](C)[C@H](NC)C(=O)O; NMeD = CN[C@@H](CC(=O)O)C(=O)O; NMeL = CN[C@@H](CC(C)C)C(=O)O; NMeV = CN[C@H](C(=O)O)C(C)C; Azetidin(1-yl) = C1CN(*)C1; NMeA = CN[C@@H](C)C(=O)O; Piperidide = C1CCN(*)CC1; Ac5c = NC1(C(=O)O)CCCC1; Aze = O=C(O)[C@@H]1CCN1; Sar = CNCC(=O)O

Legend:
[1] = Inhibition of biotin-tagged KRAS G12D mutant (unknown origin) to recombinant His-tagged SOS1 (unknown origin) protein-protein interaction incubated for 120 mins by AlphaLISA method; parameters: species or system Homo sapiens
ASPC1 = experiment: Cytotoxicity against human AsPC1 cells assessed as reduction in cell viability incubated for 7 days by CellTiterGlo Luminescent Cell Viability Assay; assay type: functional, cell-based; settings: ASPC1, 168 h
[2] = Apparent permeability in human Caco-2 cells incubated for 180 mins by LC-MS/MS method; assay type: ADME, cell-based
GTPase KRas = GTPase KRas (Homo sapiens, UniProt P01116, G12D); experiment: Binding affinity to biotinylated KRAS G12D mutant (unknown origin) incubated for 120 mins by SPR analysis
Chain of GTPase KRas (P01116 whole entry G12D): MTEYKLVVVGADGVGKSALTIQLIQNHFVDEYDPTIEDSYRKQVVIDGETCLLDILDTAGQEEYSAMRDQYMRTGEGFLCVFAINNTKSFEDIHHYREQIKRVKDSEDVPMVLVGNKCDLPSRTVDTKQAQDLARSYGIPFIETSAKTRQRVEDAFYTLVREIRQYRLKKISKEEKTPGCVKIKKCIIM

SMILES | IC50 [1] [nM] | Papp at 3 h [2] [×10⁻⁶ cm/s] | Kd (GTPase KRas) [nM] | IC50 (ASPC1) [nM]
CC[C@H](C)[C@@H]1NC(=O)[C@H](CC(C)C)N(C)C(=O)C[C@@H](C(=O)N2CCCCC2)N(C)C(=O)[C@H](C2CC2)N(C)C(=O)C2(CCCC2)NC(=O)[C@@H]2CCCN2C(=O)[C@H](CCc2ccc(C(F)(F)F)c(Cl)c2)NC(=O)CN(C)C(=O)[C@H](CC2CCCCC2)N(C)C(=O)[C@@H]2CCN2C(=O)[C@H](C)N(C)C1=O ([NMeL]I[NMeA][Aze][NMeCha][Sar][hPhe(3-Cl-4-CF3)]P[Ac5c][NMeGly(cPr)][NMeD]-Piperidide; lactam N-11) | 50 | 1.36 |  | 1100
CC[C@H](C)[C@@H]1NC(=O)[C@H](CC(C)C)N(C)C(=O)C[C@@H](C(=O)N2CCCCC2)N(C)C(=O)[C@H]([C@@H](C)CC)N(C)C(=O)C2(CCCC2)NC(=O)[C@@H]2CCCN2C(=O)[C@H](CCc2ccc(C(F)(F)F)c(Cl)c2)NC(=O)CN(C)C(=O)[C@H](CC2CCCCC2)N(C)C(=O)[C@@H]2CCN2C(=O)[C@H](C)N(C)C1=O ([NMeL]I[NMeA][Aze][NMeCha][Sar][hPhe(3-Cl-4-CF3)]P[Ac5c][NMeI][NMeD]-Piperidide; lactam N-11) | 2.8 | 0.75 |  | 48
CC[C@H](C)[C@@H]1NC(=O)[C@H](CC(C)C)N(C)C(=O)C[C@@H](C(=O)N2CCCCC2)N(C)C(=O)[C@H](C(C)C)N(C)C(=O)C2(CCCC2)NC(=O)[C@@H]2CCCN2C(=O)[C@H](CCc2ccc(C(F)(F)F)c(Cl)c2)NC(=O)CN(C)C(=O)[C@H](CC2CCCCC2)N(C)C(=O)[C@@H]2CCN2C(=O)[C@H](C)N(C)C1=O ([NMeL]I[NMeA][Aze][NMeCha][Sar][hPhe(3-Cl-4-CF3)]P[Ac5c][NMeV][NMeD]-Piperidide; lactam N-11) | 4.1 | 1.3 |  | 110
CC[C@H](C)[C@@H]1NC(=O)[C@H](CC(C)C)N(C)C(=O)C[C@@H](C(=O)N2CCCCC2)N(C)C(=O)[C@H](C(C)C)N(C)C(=O)C2(CCCC2)NC(=O)[C@@H]2CCCN2C(=O)[C@H](CCc2ccc(C(F)(F)F)c(Cl)c2)NC(=O)CN(C)C(=O)[C@H](CC2CCCCC2)N(C)C(=O)CN(C)C(=O)CN(C)C1=O ([NMeL]I[Sar][Sar][NMeCha][Sar][hPhe(3-Cl-4-CF3)]P[Ac5c][NMeV][NMeD]-Piperidide; lactam N-11) | 6 | 1.12 |  | 120

Continued, in another order:

IC50 [1] [nM] | Papp at 3 h [2] [×10⁻⁶ cm/s] | Kd (GTPase KRas) [nM] | SMILES | IC50 (ASPC1) [nM]
2.5 | 0.91 |  | CC[C@H](C)[C@@H]1NC(=O)[C@H](CC(C)C)N(C)C(=O)C[C@@H](C(=O)N2CCCCC2)N(C)C(=O)[C@H](C2CCC2)N(C)C(=O)C2(CCCC2)NC(=O)[C@@H]2CCCN2C(=O)[C@H](CCc2ccc(C(F)(F)F)c(Cl)c2)NC(=O)CN(C)C(=O)[C@H](CC2CCCCC2)N(C)C(=O)[C@@H]2CCN2C(=O)[C@H](C)N(C)C1=O ([NMeL]I[NMeA][Aze][NMeCha][Sar][hPhe(3-Cl-4-CF3)]P[Ac5c][NMeGly(cBu)][NMeD]-Piperidide; lactam N-11) | 170
< 2 | 2.61 | 0.16 | CC[C@H](C)[C@@H]1NC(=O)[C@H](CC(C)C)N(C)C(=O)C[C@@H](C(=O)N(C)C)N(C)C(=O)[C@H](C2CCCC2)N(C)C(=O)C2(CCCC2)NC(=O)[C@@H]2CCCN2C(=O)[C@H](CCc2ccc(C(F)(F)F)c(Cl)c2)NC(=O)CN(C)C(=O)[C@H](CC2CCCCC2)N(C)C(=O)[C@@H]2CCN2C(=O)[C@H](C)N(C)C1=O ([NMeL]I[NMeA][Aze][NMeCha][Sar][hPhe(3-Cl-4-CF3)]P[Ac5c][NMeGly(cPent)][NMeD]-NMe2; lactam N-11) | 5.5
< 2 | 2.66 | 0.19 | CC[C@H](C)[C@@H]1NC(=O)[C@H](CC(C)C)N(C)C(=O)C[C@@H](C(=O)N2CCC2)N(C)C(=O)[C@H](C2CCCC2)N(C)C(=O)C2(CCCC2)NC(=O)[C@@H]2CCCN2C(=O)[C@H](CCc2ccc(C(F)(F)F)c(Cl)c2)NC(=O)CN(C)C(=O)[C@H](CC2CCCCC2)N(C)C(=O)[C@@H]2CCN2C(=O)[C@H](C)N(C)C1=O ([NMeL]I[NMeA][Aze][NMeCha][Sar][hPhe(3-Cl-4-CF3)]P[Ac5c][NMeGly(cPent)][NMeD]-{Azetidin(1-yl)}; lactam N-11) | 13
36 | 0.87 |  | CC[C@H](C)[C@@H]1NC(=O)[C@H](C)N(C)C(=O)C[C@@H](C(=O)n2cccc2)N(C)C(=O)[C@H](CC(C)C)N(C)C(=O)[C@H](Cc2ccccc2)N(C)C(=O)[C@H](Cc2ccccc2)NC(=O)[C@H](Cc2cccc(Cl)c2)NC(=O)CN(C)C(=O)[C@H](Cc2ccc(Cl)cc2)N(C)C(=O)CN(C)C(=O)CN(C)C1=O (cyclo(F[NMeF][NMeL][X2][NMeA]I[Sar][Sar][NMePhe(4-Cl)][Sar][Phe(3-Cl)])) | > 20000
